Inconclusive results and toxic doses are left out. No stated cut-off is given here; in the data, active means T/C of 150% or more; inactive means T/C below 125%.
System: L1210 leukemia ip in BDF1 mice, survival T/C
Test: NCI In Vivo Anticancer Drug Screen. Data for tumor model L1210 Leukemia (intraperitoneal) in B6D2F1 (BDF1) mice
Details: endpoint: mean survival time, higher = longer survival
Summary of the method: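 Tumor was transplanted into mice, which were then dosed with test compound or vehicle alone. Survival was recorded for each group, and the treated figure was expressed relative to the control figure.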

[1] = dose: 100.0 mg/kg/injection, schedule: Q01DX001 (ip), vehicle: Klucel (hydroxypropylcellulose) (HPC)
[2] = dose: 100.0 mg/kg/injection, schedule: Q01DX001 (ip), vehicle: saline
[3] = dose: 100.0 mg/kg/injection, schedule: Q04DX002 (ip), vehicle: saline with Tween-80
[4] = dose: 100.0 mg/kg/injection, schedule: Q04DX003 (ip), vehicle: Klucel (hydroxypropylcellulose) (HPC)
[5] = dose: 200.0 mg/kg/injection, schedule: Q04DX003 (ip), vehicle: Klucel (hydroxypropylcellulose) (HPC)
[6] = dose: 400.0 mg/kg/injection, schedule: Q04DX003 (ip), vehicle: Klucel (hydroxypropylcellulose) (HPC)
[7] = dose: 100.0 mg/kg/injection, schedule: Q01DX009 (ip), vehicle: saline
[8] = dose: 200.0 mg/kg/injection, schedule: Q01DX009 (ip), vehicle: saline
[9] = dose: 400.0 mg/kg/injection, schedule: Q01DX009 (ip), vehicle: saline
[10] = dose: 100.0 mg/kg/injection, schedule: Q04DX003 (ip), vehicle: saline
[11] = dose: 200.0 mg/kg/injection, schedule: Q04DX003 (ip), vehicle: saline
[12] = dose: 400.0 mg/kg/injection, schedule: Q04DX003 (ip), vehicle: saline
[13] = dose: 200.0 mg/kg/injection, schedule: Q01DX001 (ip), vehicle: saline
[14] = dose: 400.0 mg/kg/injection, schedule: Q01DX001 (ip), vehicle: saline
[15] = dose: 100.0 mg/kg/injection, schedule: Q01DX009 (ip), vehicle: Klucel (hydroxypropylcellulose) (HPC)
[16] = dose: 200.0 mg/kg/injection, schedule: Q01DX009 (ip), vehicle: Klucel (hydroxypropylcellulose) (HPC)
[17] = dose: 400.0 mg/kg/injection, schedule: Q01DX009 (ip), vehicle: Klucel (hydroxypropylcellulose) (HPC)

Measured: T/C

CCc1ccc2c(c1)N(CCCN(CCCl)CCCl)c1ccccc1S2
inactive: dose: 1.56 mg/kg/injection, schedule: Q01DX009 (ip), vehicle: saline with Tween-80 107 % of control | dose: 3.12 mg/kg/injection, schedule: Q01DX001 (ip), vehicle: saline with Tween-80 97 % of control | dose: 3.12 mg/kg/injection, schedule: Q01DX009 (ip), vehicle: saline with Tween-80 102 % of control | dose: 6.25 mg/kg/injection, schedule: Q01DX001 (ip), vehicle: saline with Tween-80 97 % of control | dose: 6.25 mg/kg/injection, schedule: Q01DX009 (ip), vehicle: saline with Tween-80 100 % of control | dose: 6.25 mg/kg/injection, schedule: Q04DX003 (ip), vehicle: saline with Tween-80 110 % of control | dose: 12.5 mg/kg/injection, schedule: Q01DX001 (ip), vehicle: saline with Tween-80 111 % of control | dose: 12.5 mg/kg/injection, schedule: Q01DX009 (ip), vehicle: saline with Tween-80 102 % of control | dose: 12.5 mg/kg/injection, schedule: Q04DX003 (ip), vehicle: saline with Tween-80 111 % of control | dose: 25.0 mg/kg/injection, schedule: Q04DX003 (ip), vehicle: saline with Tween-80 111 % of control | dose: 50.0 mg/kg/injection, schedule: Q04DX003 (ip), vehicle: saline with Tween-80 111 % of control

CCCCCC[P+](=O)CCCCCC
inactive: dose: 100.0 mg/kg/injection, schedule: Q04DX002 (ip), vehicle: gum acacia 97 % of control | dose: 200.0 mg/kg/injection, schedule: Q04DX002 (ip), vehicle: gum acacia 103 % of control

O=c1cc2ccccc2c(O)[nH]1
inactive: dose: 25.0 mg/kg/injection, schedule: Q01DX001 (ip), vehicle: saline 107 % of control | dose: 50.0 mg/kg/injection, schedule: Q01DX001 (ip), vehicle: saline 111 % of control | [1] 100 % of control | [2] 114 % of control

N#Cc1cc(Cl)cc(Cl)c1
inactive: dose: 100.0 mg/kg/injection, schedule: Q01DX001 (ip), vehicle: carboxymethylcellulose (CMC) 98 % of control | dose: 200.0 mg/kg/injection, schedule: Q01DX001 (ip), vehicle: carboxymethylcellulose (CMC) 104 % of control | dose: 400.0 mg/kg/injection, schedule: Q01DX001 (ip), vehicle: carboxymethylcellulose (CMC) 93 % of control

COc1cc(C=Nc2ccc(Cl)cc2)ccc1OC(=O)c1ccccc1
inactive: [3] 91 % of control | dose: 200.0 mg/kg/injection, schedule: Q04DX002 (ip), vehicle: saline with Tween-80 87 % of control

CC(=O)N(C)c1ccc(NC(=O)Nc2cc([N+](=O)[O-])ccc2F)cc1
inactive: [4] 91 % of control | [5] 97 % of control | [6] 92 % of control

C=Cc1cccc[n+]1[O-]
inactive: [7] 115 % of control | [8] 102 % of control | [9] 102 % of control

CC(C)(C)NC(=O)Oc1ccc(Br)cc1Br
inactive: [7] 104 % of control | [10] 88 % of control | [8] 98 % of control | [11] 92 % of control | [9] 104 % of control | [12] 87 % of control

CN(C)C=NCC1CCCO1 (stereo not drawn)
inactive: [2] 97 % of control | [13] 90 % of control | [14] 97 % of control

CCN(CC)C(=O)c1cccc(COc2ccc(N3C(N)=NC(N)=NC3(C)C)cc2Cl)c1
inactive: dose: 25.0 mg/kg/injection, schedule: Q01DX009 (ip), vehicle: saline with Tween-80 107 % of control | dose: 50.0 mg/kg/injection, schedule: Q01DX009 (ip), vehicle: saline with Tween-80 107 % of control

CCCCCCCCC1NC1CCCCCCCC (stereo not drawn)
inactive: dose: 25.0 mg/kg/injection, schedule: Q04DX002 (ip), vehicle: saline with Tween-80 98 % of control | dose: 50.0 mg/kg/injection, schedule: Q04DX002 (ip), vehicle: saline with Tween-80 88 % of control | dose: 100.0 mg/kg/injection, schedule: Q04DX002 (ip), vehicle: other 100 % of control | [3] 100 % of control | dose: 200.0 mg/kg/injection, schedule: Q04DX002 (ip), vehicle: other 96 % of control

COc1ccc(OC)c(NC(=O)Nc2ccccc2C(N)=O)c1
inactive: [4] 97 % of control | [5] 95 % of control | [6] 93 % of control

C=C(C)C[N+]1(CC)CCN=C1CCCCCCCCCCCCCCCCC (stereo not drawn)
inactive: dose: 0.31 mg/kg/injection, schedule: Q01DX Z (ip), vehicle: saline 100 % of control | dose: 0.47 mg/kg/injection, schedule: Q01DX Z (ip), vehicle: saline 96 % of control | dose: 0.7 mg/kg/injection, schedule: Q01DX Z (ip), vehicle: saline 102 % of control | dose: 1.05 mg/kg/injection, schedule: Q01DX Z (ip), vehicle: saline 96 % of control

Cc1cc(=O)oc2cc(OC(=O)Nc3ccc(F)c([N+](=O)[O-])c3)ccc12
inactive: [15] 101 % of control | [16] 107 % of control

COc1cc(C)nc2ccc(Cc3ccc4nc(C)cc(OC)c4c3)cc12
inactive: [2] 94 % of control | [13] 93 % of control | [14] 96 % of control

O=C(c1cccc([N+](=O)[O-])c1)c1cccc([N+](=O)[O-])c1
inactive: [1] 117 % of control | dose: 200.0 mg/kg/injection, schedule: Q01DX001 (ip), vehicle: Klucel (hydroxypropylcellulose) (HPC) 97 % of control | dose: 400.0 mg/kg/injection, schedule: Q01DX001 (ip), vehicle: Klucel (hydroxypropylcellulose) (HPC) 94 % of control

Cc1ccc(C)c2c3c(oc12)CCCC3
inactive: [2] 91 % of control | [13] 94 % of control | [14] 105 % of control

CC1OCC2OC(C)OC(C(COC(c3ccccc3)(c3ccccc3)c3ccccc3)OS(C)(=O)=O)C2O1 (stereo not drawn)
inactive: [7] 101 % of control | [10] 102 % of control | [8] 106 % of control | [11] 98 % of control | [9] 88 % of control | [12] 93 % of control

CCOC(=O)c1ccc(N(CCC(=O)CBr)C(C)=O)cc1
inactive: dose: 5.0 mg/kg/injection, schedule: Q01DX001 (ip), vehicle: carboxymethylcellulose (CMC) 97 % of control | dose: 10.0 mg/kg/injection, schedule: Q01DX001 (ip), vehicle: carboxymethylcellulose (CMC) 100 % of control | dose: 20.0 mg/kg/injection, schedule: Q01DX001 (ip), vehicle: carboxymethylcellulose (CMC) 100 % of control | dose: 40.0 mg/kg/injection, schedule: Q01DX001 (ip), vehicle: carboxymethylcellulose (CMC) 97 % of control

CCC(=O)Nc1cccc(OC(=O)NC(C)(C)C)c1
inactive: dose: 100.0 mg/kg/injection, schedule: Q04DX003 (ip), vehicle: saline with Tween-80 90 % of control | dose: 200.0 mg/kg/injection, schedule: Q04DX003 (ip), vehicle: saline with Tween-80 90 % of control | dose: 400.0 mg/kg/injection, schedule: Q04DX003 (ip), vehicle: saline with Tween-80 89 % of control

O=C1NC(=O)/C(=C/c2ccccc2)N1
inactive: [15] 96 % of control | [4] 104 % of control | [16] 98 % of control | [5] 96 % of control | [17] 102 % of control | [6] 96 % of control

O=P(CCl)(NC12CC3CC(CC(C3)C1)C2)N1CC1 (stereo not drawn)
inactive: dose: 50.0 mg/kg/injection, schedule: Q04DX003 (ip), vehicle: Klucel (hydroxypropylcellulose) (HPC) 100 % of control | [15] 97 % of control | [4] 95 % of control | [16] 95 % of control | [5] 103 % of control | [17] 103 % of control | [6] 97 % of control
